Results on 2 compounds are retold here after patent US8614241B2, “Ester compound and use thereof” (Sumitomo Chemical Company, Limited, priority 2010, dated 2013).

The test has as its system German cockroaches (Blattella germanica). Nature of the test: Knock-down test by spraying oil solution on German cockroaches. It counts as in vivo. The following applies: 0.00625% (w/v) oil solution, 1.5 ml sprayed, ten adult German cockroaches (5 males, 5 females). On the procedure:
Zero point zero zero six two five (0.00625) part of the compound of the present inventions (1) and (2) was dissolved in 10 parts of isopropyl alcohol and the solution was mixed with 89.99375 parts of deodorized kerosene to prepare a 0.00625% (w/v) oil solution.
Ten adult German cockroaches (Blattella germanica, 5 males and 5 females) were released in a test container (diameter 8.75 cm, 7.5 cm high, the bottom face is made of 16 mesh metallic wire), the inner face on which butter was applied, and the container was set at the bottom of a test chamber (bottom face: 46 cm×46 cm, height: 70 cm).
Each 1.5 ml of the oil solution of the compound of the present invention (1) and (2) was sprayed using a spray gun at a pressure of 0.4 kg/cm^2 from 60 cm higher than the upper face of the container. Thirty seconds after the spraying, the container was pulled out from the chamber. Two minutes after spraying, the number of knocked-down cockroaches was counted and a knock-down ratio was determined (repeated once). A knocked-down ratio was calculated by the following equation. Knocked-down ratio (%)=(Number of knocked-down cockroaches/Number of test cockroaches)×100 The results (2 minutes after spraying) are shown in Table 1.

Structures are written as SMILES.

In the case of `C#CCn1c(C)nn(COC(=O)[C@@H]2[C@@H](/C=C(\C#N)C=C)C2(C)C)c1=O` [compound of the present invention (1), 3-methyl-5-oxo-4-(2-propynyl)-4,5-dihydro-[1,2,4]triazolylmethyl=(1R)-trans-3-[(1Z)-2-cyano-1,3-butadienyl]-2,2-dimethylcyclopropane carboxylate], the “Knock-down ratio (%) 2 minutes after spraying” value is given as 100%.

With `C#CCn1c(C)nn(COC(=O)[C@@H]2[C@@H](/C=C(C#N)/C=C/C)C2(C)C)c1=O` [compound of the present invention (2), 3-methyl-5-oxo-4-(2-propynyl)-4,5-dihydro-[1,2,4]triazolylmethyl=(1R)-trans-3-[(1Z,3E)-2-cyano-1,3-pentadienyl]-2,2-dimethylcyclopropane carboxylate], the “Knock-down ratio (%) 2 minutes after spraying” value is 100%.
